Source: ChEMBL document CHEMBL3400018, “One-pot catalyst free synthesis of novel kojic acid tagged 2-aryl/alkyl substituted-4H-chromenes and evaluation of their antimicrobial and anti-biofilm activities” (Bioorg Med Chem Lett, 2015)
Values after ≈ are worked out from the molar mass of the structure shown. Active and inactive are the calls of the source. The rule behind the calls is not given here.

Assays:
[1] = system: Bacillus subtilis; experiment: Antimicrobial activity against Bacillus subtilis MTCC 121 after 24 hrs by well diffusion method; type: functional; settings: MTCC 121, 24 h
[2] = system: Raoultella planticola; experiment: Antimicrobial activity against Klebsiella planticola MTCC 530 after 24 hrs by well diffusion method; type: functional; settings: MTCC 530, 24 h
[3] = system: Staphylococcus aureus; experiment: Antimicrobial activity against Staphylococcus aureus MLS-16 MTCC 2940 after 24 hrs by well diffusion method; type: functional; settings: MLS-16 MTCC 2940, 24 h
[4] = system: Bacillus subtilis; experiment: Bactericidal activity against Bacillus subtilis MTCC 121 after 24 hrs by Mueller Hinton agar plate assay; type: functional; settings: MTCC 121, 24 h
[5] = system: Staphylococcus aureus; experiment: Antimicrobial activity against Staphylococcus aureus MLS-16 MTCC 2940 assessed as inhibition of biofilm formation after 24 hrs; type: functional, organism-based; settings: MLS-16, 24 h
[6] = system: Escherichia coli; experiment: Bactericidal activity against Escherichia coli MTCC 739 after 24 hrs by Mueller Hinton agar plate assay; type: functional; settings: MTCC 739, 24 h
[7] = system: Escherichia coli; experiment: Antimicrobial activity against Escherichia coli MTCC 739 assessed as inhibition of biofilm formation after 24 hrs; type: functional, organism-based; settings: MTCC 739, 24 h
[8] = system: Micrococcus luteus; experiment: Antimicrobial activity against Micrococcus luteus MTCC 2470 after 24 hrs by well diffusion method; type: functional; settings: MTCC 2470, 24 h
[9] = system: Escherichia coli; experiment: Antimicrobial activity against Escherichia coli MTCC 739 after 24 hrs by well diffusion method; type: functional; settings: MTCC 739, 24 h
[10] = system: Staphylococcus aureus; experiment: Bactericidal activity against Staphylococcus aureus MLS-16 MTCC 2940 after 24 hrs by Mueller Hinton agar plate assay; type: functional; settings: MLS-16, 24 h
[11] = system: Bacillus subtilis; experiment: Antimicrobial activity against Bacillus subtilis MTCC 121 assessed as inhibition of biofilm formation after 24 hrs; type: functional, organism-based; settings: MTCC 121, 24 h
[12] = system: Pseudomonas aeruginosa; experiment: Antimicrobial activity against Pseudomonas aeruginosa MTCC 2453 after 24 hrs by well diffusion method; type: functional; settings: MTCC 2453, 24 h
[13] = system: Candida albicans; experiment: Antimicrobial activity against Candida albicans MTCC 3017 after 24 hrs by well diffusion method; type: functional, organism-based

SMILES	MIC [1] [µg/mL]	MIC [3] [µg/mL]	IC50 [5] [µg/mL]	IC50 [7] [µg/mL]	MIC [8] [µg/mL]	MIC [9] [µg/mL]	IC50 [11] [µg/mL]	MIC [12] [µg/mL]	MIC [13]	MIC [2] [µg/mL]	MBC [4] [µg/mL]	MBC [6] [µg/mL]	MBC [10] [µg/mL]
O=C(O)c1cn(C2CC2)c2cc(N3CCNCC3)c(F)cc2c1=O [CIPROFLOXACIN]	0.9 (≈ 2.72 µM)	0.9 (≈ 2.72 µM)	–	–	0.9 (≈ 2.72 µM)	0.9 (≈ 2.72 µM)	–	0.9 (≈ 2.72 µM)	inactive	0.9 (≈ 2.72 µM)	0.9 (≈ 2.72 µM)	1.9 (≈ 5.73 µM)	1.9 (≈ 5.73 µM)
CC[C@H]1OC(=O)[C@H](C)[C@@H](O[C@H]2C[C@@](C)(OC)[C@@H](O)[C@H](C)O2)[C@H](C)[C@@H](O[C@@H]2O[C@H](C)C[C@H](N(C)C)[C@H]2O)[C@](C)(O)C[C@@H](C)C(=O)[C@H](C)[C@@H](O)[C@]1(C)O [ERYTHROMYCIN]	–	–	0.23 (≈ 0.313 µM)	0.31 (≈ 0.422 µM)	–	–	0.19 (≈ 0.259 µM)	–	–	–	–	–	–
O=c1cc(CO)oc(C2C=C(c3ccccc3Br)Oc3ccccc32)c1O (configuration not stated)	> 125	> 125	–	–	> 125	> 125	–	> 125	inactive	> 125	–	–	–
CC1=CC(c2oc(CO)cc(=O)c2O)c2ccccc2O1 (configuration not stated)	> 125	> 125	–	–	> 125	> 125	–	> 125	inactive	> 125	–	–	–
O=c1cc(CO)oc(C2C=C(c3ccc4ccccc4c3)Oc3ccccc32)c1O (configuration not stated)	> 125	> 125	–	–	> 125	> 125	–	> 125	inactive	> 125	–	–	–
CCC1=CC(c2oc(CO)cc(=O)c2O)c2ccccc2O1 (configuration not stated)	> 125	> 125	–	–	> 125	> 125	–	> 125	inactive	> 125	–	–	–
O=c1cc(CO)oc(C2C=C(c3ccccc3)Oc3ccc(Cl)cc32)c1O (configuration not stated)	> 125	> 125	–	–	> 125	> 125	–	> 125	inactive	> 125	–	–	–
O=c1cc(CO)oc(C2C=C(c3ccccc3)Oc3ccc(Br)cc32)c1O (configuration not stated)	> 125	> 125	–	–	> 125	> 125	–	> 125	inactive	> 125	–	–	–
O=c1cc(CO)oc(C2C=C(c3cc(F)cc(F)c3)Oc3ccccc32)c1O (configuration not stated)	> 125	> 125	–	–	> 125	> 125	–	> 125	inactive	> 125	–	–	–

The next lines start with results.

MIC [1] [µg/mL]	MIC [3] [µg/mL]	IC50 [5] [µg/mL]	IC50 [7] [µg/mL]	MIC [8] [µg/mL]	MIC [9] [µg/mL]	IC50 [11] [µg/mL]	MIC [12] [µg/mL]	MIC [13]	SMILES	MIC [2] [µg/mL]	MBC [4] [µg/mL]	MBC [6] [µg/mL]	MBC [10] [µg/mL]
7.8 (≈ 19.9 µM)	> 125	> 125	17.8 (≈ 45.4 µM)	> 125	15.6 (≈ 39.8 µM)	8.1 (≈ 20.6 µM)	> 125	inactive	O=c1cc(CO)oc(C2C=C(c3ccc4c(c3)OCO4)Oc3ccccc32)c1O (configuration not stated)	> 125	15.6 (≈ 39.8 µM)	31.2 (≈ 79.5 µM)	> 125
> 125	> 125	–	–	> 125	> 125	–	> 125	inactive	O=c1cc(CO)oc(C2C=C(c3ccccc3)Oc3c(Cl)cc(Br)cc32)c1O (configuration not stated)	> 125	–	–	–
15.6 (≈ 43 µM)	15.6 (≈ 43 µM)	18.6 (≈ 51.3 µM)	9.1 (≈ 25.1 µM)	> 125	7.8 (≈ 21.5 µM)	20.1 (≈ 55.5 µM)	> 125	inactive	Cc1ccc(C2=CC(c3oc(CO)cc(=O)c3O)c3ccccc3O2)cc1 (configuration not stated)	> 125	31.2 (≈ 86.1 µM)	15.6 (≈ 43 µM)	31.2 (≈ 86.1 µM)
> 125	> 125	–	–	> 125	> 125	–	> 125	inactive	O=c1cc(CO)oc(C2C=C(c3cccc(O)c3)Oc3ccccc32)c1O (configuration not stated)	> 125	–	–	–
7.8 (≈ 23.8 µM)	7.8 (≈ 23.8 µM)	9.2 (≈ 28 µM)	> 125	> 125	> 125	11.3 (≈ 34.4 µM)	> 125	inactive	CC(C)CC1=CC(c2oc(CO)cc(=O)c2O)c2ccccc2O1 (configuration not stated)	> 125	15.6 (≈ 47.5 µM)	> 125	15.6 (≈ 47.5 µM)
7.8 (≈ 20.6 µM)	15.6 (≈ 41.2 µM)	15.4 (≈ 40.7 µM)	6.1 (≈ 16.1 µM)	> 125	7.8 (≈ 20.6 µM)	10.2 (≈ 27 µM)	> 125	inactive	COc1ccc(C2=CC(c3oc(CO)cc(=O)c3O)c3ccccc3O2)cc1 (configuration not stated)	> 125	15.6 (≈ 41.2 µM)	7.8 (≈ 20.6 µM)	31.2 (≈ 82.5 µM)
7.8 (≈ 22 µM)	7.8 (≈ 22 µM)	8.8 (≈ 24.8 µM)	18.2 (≈ 51.4 µM)	> 125	15.6 (≈ 44 µM)	4.6 (≈ 13 µM)	> 125	inactive	O=c1cc(CO)oc(C2C=C(c3cccs3)Oc3ccccc32)c1O (configuration not stated)	> 125	7.8 (≈ 22 µM)	31.2 (≈ 88 µM)	15.6 (≈ 44 µM)
7.8 (≈ 20.4 µM)	15.6 (≈ 40.8 µM)	9.1 (≈ 23.8 µM)	> 125	> 125	> 125	3.6 (≈ 9.4 µM)	> 125	inactive	O=c1cc(CO)oc(C2C=C(c3ccc(Cl)cc3)Oc3ccccc32)c1O (configuration not stated)	> 125	7.8 (≈ 20.4 µM)	> 125	15.6 (≈ 40.8 µM)
3.9 (≈ 11.2 µM)	7.8 (≈ 22.4 µM)	8.3 (≈ 23.8 µM)	5.2 (≈ 14.9 µM)	> 125	7.8 (≈ 22.4 µM)	3.4 (≈ 9.76 µM)	> 125	inactive	O=c1cc(CO)oc(C2C=C(c3ccccc3)Oc3ccccc32)c1O (configuration not stated)	> 125	7.8 (≈ 22.4 µM)	7.8 (≈ 22.4 µM)	15.6 (≈ 44.8 µM)
